Patent publication US6258815A, “Specific immunophilin ligands as antiasthmatics and immunosuppressants” (ASTA Medica Aktiengesellschaft, priority 1996, dated 2001)
“Also recorded” adds a separate entry of the source.

Legend:
[1] = target: human cyclophilin B (Homo sapiens, UniProt P23284); test: PPlase test (inhibition of peptidyl-prolyl cis/trans-isomerase activity); format: biochemical; settings: Compound [10 μmol], human CypB
Experimental: The compounds of the formula (I) according to the invention are distinguished by binding to immunophilins and inhibit their isomerase activity. This prolyl isomerase activity is assayed by an enzyme test conventionally used throughout the world: G. Fischer, H. Bang, A. Schellenberger, Biochim. Biophys. Acta, 791, 87-97, 1984; D. H. Rich et al., J. Med. Chem. 38, 4164-4170, 1995.
[…] This PPlase activity is assayed by an enzyme test conventionally used throughout the world: G. Fischer, H. Bang, C. Mech, Biomed. Biochim. Acta, 43, 1101-1111; G. Fischer, R. Bang, A. Schellenberger, Biochim. Biophys. Acta, 791, 87-97, 1984; D. H. Rich et al., J. Med. Chem. 38, 4164-4170, 1995.
The compounds of the general formula I according to the invention are preincubated together with 10 nmol of CypB for 15 min at 4° C. The enzyme reaction is started after the addition of chymotrypsin and HEPES buffer with the test peptide Suc-Ala-Ala-Pro-Phe-Nan. The change in extinction at 390 nm is then monitored and evaluated. The change in extinction determined by photometry results from two partial reactions: a) the rapid chymotryptic cleavage of the trans-peptide; and b) the […] cis/trans isomerization catalysed by cyclophilins.

[2] = system: CypB-CsA; test: displacement of 3H-CsA from CypB-CsA (gel filtration of T cell homogenate); format: binding, human; settings: Compound [10 μmol]; 3H-CsA (100 nmol)
Experimental: (§1) To study the interaction with this supermolecule from CsA-CypB or CsA-CypB-calcineurin, the compounds of the general formula I according to the invention were incubated with cell homogenate of a human T cell line containing ^3 H-CsA (100 nmol). After gel filtration on Superose 12, the radioactivity of the eluted fractions was measured and compared with the untreated control. The corresponding displacement of ^3 H-CsA from the supermolecules CypB-CsA and CypB-CsA-calcineurin by the compounds of the general formula I according to the invention is shown in Table 2: […]

[3] = system: CypB-CsA-calcineurin; test: displacement of 3H-CsA from CypB-CsA-calcineurin (gel filtration of T cell homogenate); format: binding, human; settings: Compound [10 μmol]; 3H-CsA (100 nmol)
Experimental: as §1

[4] = system: T cells stimulated with OKT-3; test: IL-2 proliferation test (3H-thymidine incorporation into T cells stimulated with OKT-3); format: cell-based; settings: Homo sapiens, T-cell; Compound [10 μmol]; 45 h incubation, OKT-3 1 μg/ml; read-out: CD3-induced inhibition of proliferation in [%]
Experimental: The IL-2 proliferation test is based on the incorporation of ^3 H-thymidine into T cells stimulated with OKT-3 (human anti-CD3 antibodies) and is performed as follows:
100,000 T cells are inoculated into 150 μl of culture medium per well in microtitre plates, stimulated by the addition of OKT-3 (1 μg/ml) and incubated for 45 h with each of the compounds of the general formula I according to the invention. After this incubation period, 10 μl of the ^3 H-thymidine solution (0.5 μCi) are pipetted into each well. Incubation is then carried out for 6 h at 37° C. in a 5% CO2 atmosphere. After the cells have been harvested, the radioactivity is quantified in a β-counter. The corresponding CD3-induced inhibition of proliferation by the compounds of the general formula I according to the invention is shown in Table 3: […]

[5] = system: cytokines, like IL-2, IL-4 and IL-5; settings: animal experiments; reference substances; cited from earlier work
[6] = system: FKBP; settings: cited from earlier work
[7] = system: IL-2 gene transcription in T cells; settings: cited from earlier work

human cyclophilin B, sequence (P23284 34-216): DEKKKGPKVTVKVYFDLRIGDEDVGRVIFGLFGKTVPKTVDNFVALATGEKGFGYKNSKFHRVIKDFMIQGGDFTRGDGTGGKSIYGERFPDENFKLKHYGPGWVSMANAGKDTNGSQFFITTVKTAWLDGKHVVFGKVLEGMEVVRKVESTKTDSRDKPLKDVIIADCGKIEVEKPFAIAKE

inhibition at 10 µM [1] [%]	Compound	Displacement from CypB-CsA in [%] [2] [%]	Displacement from CypB-CsA-CN in [%] [3] [%]	inhibition [4] [%]	blocking of cytokines, like IL-2, IL-4 and IL-5 [5]	binding affinity to receptor protein FKBP [6]	inhibition of gene transcription including the IL-2 gene [7]
0 to 20	COC(=O)[C@H](CCCCNC(=O)OC(C)(C)C)NC(=O)C1Cc2ccccc2N1C(=O)C1CCN(C(=O)OC(C)(C)C)CC1 (stereo partly drawn) [Example 1, N-[1-Boc-piperidyl-4-carbonyl]indoline-2-(R,S)-carboxylic acid [S-(N-ε-Boc)lysinemethyl ester]amide]	10	45	86	–	–	–
0 to 20	COC(=O)[C@H](CCCCNC(=O)OC(C)(C)C)NC(=O)C1Cc2ccccc2N1C(=O)C1Cc2ccccc2N1C(=O)OC(C)(C)C (stereo partly drawn) [Example 3, N-[1-Boc-indoline-2-(R,S)-carbonyl]indoline-2-(R,S)-carboxylic acid [S-(N-ε-Boc)lysinemethyl ester]amide]	14	22	82	–	–	–
0 to 20	COC(=O)[C@H](CCCCN)NC(=O)C1Cc2ccccc2N1C(=O)C1Cc2ccccc2N1 (stereo partly drawn) [Example 4, N-[indoline-2-(R,S)-carbonyl]indoline-2-(R,S)-carboxylic acid [S-(ε-NH2)lysinemethyl ester]amide]	33	-42	38	–	–	–
0 to 20	COC(=O)[C@H](CCCCNC(=O)OCc1ccccc1)NC(=O)C1Cc2ccccc2N1C(=O)C1Cc2ccccc2N1C(=O)OC(C)(C)C (stereo partly drawn) [Example 5, N-[1-Boc-indoline-2-(R,S)-carbonyl]indoline-2-(R,S)-carboxylic acid [S-(N-ε-Z)lysinemethyl ester]amide]	16	20	92	–	–	–
20 to 40	COC(=O)[C@H](CCCCNC(=O)OCc1ccccc1)NC(=O)C1Cc2ccccc2N1C(=O)OC(C)(C)C (stereo partly drawn) [Example 6, 1-Boc-indoline-2-(R,S)-carboxylic acid [S-(N-ε-Z)lysinemethyl ester]amide]	0	7	84	–	–	–
0 to 20	COC(=O)[C@H](Cc1ccccc1)NC(=O)C1Cc2ccccc2N1C(=O)OC(C)(C)C (stereo partly drawn) [Example 7, 1-Boc-indoline-2-(R,S)-carboxylic acid (S-phenylalanine methyl ester)amide]	38	0	7	–	–	–
0 to 20	COC(=O)[C@H](CCCCNC(=O)OCc1ccccc1)NC(=O)C1Cc2ccccc2N1C(=O)C1CCN(C(=O)Cc2ccc(OC)cc2)CC1 (stereo partly drawn) [Example 13, N-[N'-(4-methoxyphenylacetyl)piperidyl-4-carbonyl]indoline-2-(R,S)-carboxylic acid [S-(N-ε-Z)lysinemethyl ester]amide]	46	-16	66	–	–	–

Further lines, the compound ahead of its results:

Compound	inhibition at 10 µM [1] [%]	Displacement from CypB-CsA in [%] [2] [%]	Displacement from CypB-CsA-CN in [%] [3] [%]	inhibition [4] [%]	blocking of cytokines, like IL-2, IL-4 and IL-5 [5]	binding affinity to receptor protein FKBP [6]	inhibition of gene transcription including the IL-2 gene [7]
COC(=O)C1Cc2ccccc2N1C(=O)C1CCN(C(=O)Cc2ccc(OC)cc2)CC1 (racemic) [Example 8, N-[N'-(4-methoxyphenylacetyl)piperidyl-4-carbonyl]indoline-2-(R,S)-carboxylic acid methyl ester]	0 to 20	0	8	–	–	–	–
COC(=O)C1Cc2ccccc2N1C(=O)Cc1ccc(OC)cc1 (racemic) [Example 9, N-(4-methoxyphenylacetyl)indoline-2-(R,S)-carboxylic acid methyl ester]	0 to 20	39	37	–	–	–	–
CC(C)(C)OC(=O)N1c2ccccc2CC1C(=O)Nc1ccncc1 (racemic) [Example 10]	0 to 20	-58	0	6	–	–	–
CC(C)(C)OC(=O)N1c2ccccc2CC1C(=O)N1CCN(CC(=O)N2CCOCC2)CC1 (racemic) [Example 11, N-Boc-indoline-2-(R,S)-carboxylic acid (piperazinoacetic acid morpholide)amide]	0 to 20	-28	0	9	–	–	–
CC(C)(C)OC(=O)N1CCC(C(=O)N2c3ccccc3CC2C(=O)N2CCN(CC(=O)N3CCOCC3)CC2)CC1 (racemic) [Example 12, N-[1-Boc-piperidyl-4-carbonyl]indoline-2-(R,S)-carboxylic acid (piperazinoacetic acid morpholide)amide]	0 to 20	8	-25	5	–	–	–
COC(=O)[C@H](CCCCN)NC(=O)C1Cc2ccccc2N1C(=O)C1CCNCC1 (stereo partly drawn) [Example 2, N-[piperidyl-4-carbonyl]indoline-2-(R,S)-carboxylic acid [S-(ε-NH2)lysinemethyl ester]amide]	0 to 20	45	-53	40	–	–	–
C=CC[C@@H]1/C=C(\C)C[C@H](C)C[C@H](OC)[C@H]2O[C@@](O)(C(=O)C(=O)N3CCCC[C@H]3C(=O)O[C@H](/C(C)=C/[C@@H]3CC[C@@H](O)[C@H](OC)C3)[C@H](C)[C@@H](O)CC1=O)[C@H](C)C[C@@H]2OC [FK 506]	–	–	–	–	blocking of various cytokines, like IL-2, IL-4 and IL-5; also recorded: exhibit the blocking of cytokines, like IL-2, IL-4 and IL-5	bind with high affinity	inhibit the transcription of a number of genes, including the IL-2 gene
CO[C@H]1C[C@@H]2CC[C@@H](C)[C@@](O)(O2)C(=O)C(=O)N2CCCC[C@H]2C(=O)O[C@H]([C@H](C)C[C@@H]2CC[C@@H](O)[C@H](OC)C2)CC(=O)[C@H](C)/C=C(\C)[C@@H](O)[C@@H](OC)C(=O)[C@H](C)C[C@H](C)/C=C/C=C/C=C/1C [rapamycin]	–	–	–	–	exhibit the blocking of cytokines, like IL-2, IL-4 and IL-5	–	–
